In US8188078B2 (Sanofi-Aventis, priority 2007, dated 2012):
Where a name gives a salt, the structure may show the parent alone.

These molecules were tested against T1, c-MET (Homo sapiens, UniProt P08581) (assay: Test A: HTRF Met test in 96-well format).
T1 construct: The recombinant DNA His-Tev-MET (956-1390) in pFastBac(Invitrogen); His (N, cleaved yes); Tev (TEV protease site) (N, cleaved yes); made in house; host or cells: SF21 insect cells (baculovirus, pFastBac)
Assay type: biochemical
In short: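 Percent inhibition was calculated from the HTRF 665/620 ratio, using Eu-cryptate anti-phosphotyrosine PT66 plus streptavidin-XL added with EDTA and read after 2 h. The reaction ran 10 min at room temperature: 5 nM tag-cleaved MET (956–1390), 10 µM ATP, 1 µg/ml poly-GAT, and compound from 0.17 nM to 10 µM in 3% DMSO.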

T1 sequence (P08581 956-1390): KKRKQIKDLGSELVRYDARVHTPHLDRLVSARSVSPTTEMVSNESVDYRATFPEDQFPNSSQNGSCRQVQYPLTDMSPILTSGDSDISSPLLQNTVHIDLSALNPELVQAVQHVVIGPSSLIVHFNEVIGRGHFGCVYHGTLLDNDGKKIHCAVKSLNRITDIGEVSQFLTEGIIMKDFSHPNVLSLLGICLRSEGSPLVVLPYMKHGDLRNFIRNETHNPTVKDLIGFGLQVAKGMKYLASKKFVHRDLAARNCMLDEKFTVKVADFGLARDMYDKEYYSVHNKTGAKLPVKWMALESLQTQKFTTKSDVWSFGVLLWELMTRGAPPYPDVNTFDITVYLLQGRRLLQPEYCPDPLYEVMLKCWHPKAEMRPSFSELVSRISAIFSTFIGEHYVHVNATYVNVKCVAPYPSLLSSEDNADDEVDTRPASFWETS

Molecule | IC50 [µM]
CC(Oc1ccc2nc(NC(=O)NCCCN3CCCCCC3)sc2c1)c1c(Cl)ccc(F)c1Cl (stereo not drawn) [Example 48, 1-(3-azepan-1-ylpropyl)-3-{6-[1-(2,6-dichloro-3-fluorophenyl)ethoxy]-1,3-benzothiazol-2-yl}urea] | < 0.1
CC(Oc1ccc2nc(NC(=O)NCCCN3CCOCC3)sc2c1)c1c(Cl)ccc(F)c1Cl (stereo not drawn) [Example 42, 1-{6-[1-(2,6-dichloro-3-fluorophenyl)ethoxy]-1,3-benzothiazol-2-yl}-3-(3-morpholin-4-ylpropyl)urea] | < 0.1
CC(Oc1ccc2nc(NC(=O)NCCN3CCCCCC3)sc2c1)c1c(Cl)ccc(F)c1Cl (stereo not drawn) [Example 54, 1-(2-azepan-1-ylethyl)-3-{6-[1-(2,6-dichloro-3-fluorophenyl)ethoxy]-1,3-benzothiazol-2-yl}urea] | < 0.1
CC(Oc1ccc2nc(NC(=O)NCCN3CCOCC3)[nH]c2c1)c1c(Cl)ccc(F)c1Cl (stereo not drawn) [Example 4, 4-{2-[({6-[1-(2,6-Dichloro-3-fluorophenyl)ethoxy]-1H-benzimidazol-2-yl}carbamoyl)amino]ethyl}morpholin-4-ium trifluoroacetate] | < 0.1
CC(Oc1ccc2nc(NC(=O)NCCC3CCNCC3)sc2c1)c1c(Cl)ccc(F)c1Cl (stereo not drawn) [Example 39, 1-{6-[1-(2,6-Dichloro-3-fluorophenyl)ethoxy]-1,3-benzothiazol-2-yl}-3-(2-piperidin-4-ylethyl)urea trifluoroacetate] | < 0.1
CC(Oc1ccc2nc(NC(=O)NCCN3CCCCC3)sc2c1)c1c(Cl)ccc(F)c1Cl (stereo not drawn) [Example 50, 1-{6-[1-(2,6-dichloro-3-fluorophenyl)ethoxy]-1,3-benzothiazol-2-yl}-3-(2-piperidin-1-ylethyl)urea] | < 0.1
CC(Oc1cc2sc(NC(=O)NCCN3CCOCC3)nc2cc1F)c1c(F)ccc(Cl)c1Cl (single isomer, unassigned) [Example 112, 1-{6-[(1R*)-1-(2,3-dichloro-6-fluorophenyl)ethoxy]-5-fluoro-1,3-benzothiazol-2-yl}-3-[2-(morpholin-4-yl)ethyl]urea] | < 0.1
CCN(CC)CCCOC(=O)Nc1nc2cc(F)c(OC(C)c3c(Cl)ccc(F)c3Cl)cc2s1 (stereo not drawn) [Example 70] | < 0.1
CC(Oc1cc2sc(NC(=O)NCCN3CCCC3)nc2cc1F)c1c(F)ccc(Cl)c1Cl (single isomer, unassigned) [Example 119, 1-{6-[(1R*)-1-(2,3-dichloro-6-fluorophenyl)ethoxy]-5-fluoro-1,3-benzothiazol-2-yl}-3-[2-(pyrrolidin-1-yl)ethyl]urea] | < 0.1
CC(Oc1ccc2nc(NC(=O)NCCN3CCCC3)sc2c1)c1c(Cl)ccc(F)c1Cl (stereo not drawn) [Example 51, 1-{6-[1-(2,6-dichloro-3-fluorophenyl)ethoxy]-1,3-benzothiazol-2-yl}-3-(2-pyrrolidin-1-ylethyl)urea] | < 0.1
CC(Oc1ccc2nc(NC(=O)NCCCN3CCN(Cc4ccccc4)CC3)sc2c1)c1c(Cl)ccc(F)c1Cl (stereo not drawn) [Example 49, 1-[3-(4-benzylpiperazin-1-yl)propyl]-3-{6-[1-(2,6-dichloro-3-fluorophenyl)ethoxy]-1,3-benzothiazol-2-yl}urea] | < 0.1
CC(Oc1cc2sc(NC(=O)NCCN3CCNC(=O)C3)nc2cc1F)c1c(Cl)ccc(F)c1Cl (stereo not drawn) [Example 130, 1-{6-[1-(2,6-dichloro-3-fluorophenyl)ethoxy]-5-fluoro-1,3-benzothiazol-2-yl}-3-[2-(3-oxopiperazin-1-yl)ethyl]urea] | < 0.1
CC(Oc1ccc2nc(NC(=O)OCCN3CCOCC3)sc2c1)c1c(Cl)ccc(F)c1Cl (stereo not drawn) [Example 74] | < 0.1
{6-[1-(2,6-dichloro-3-fluorophenyl)ethoxy]-5-fluoro-1,3-benzothiazol-2-yl}2-(pyrrolidin-1-yl)ethyl carbamate [Example 73] | < 0.1
CC(Oc1ccc2nc(NC(=O)NCCCN3CCCC3=O)sc2c1)c1c(Cl)ccc(F)c1Cl (stereo not drawn) [Example 45, 1-{6-[1-(2,6-dichloro-3-fluorophenyl)ethoxy]-1,3-benzothiazol-2-yl}-3-[3-(2-oxopyrrolidin-1-yl)propyl]urea] | < 0.1
CC(Oc1ccc2nc(NC(=O)NCCN3CCN(C)CC3)sc2c1)c1c(F)ccc(Cl)c1Cl (single isomer, unassigned) [Example 109, 1-{6-[(1R*)-1-(2,3-dichloro-6-fluorophenyl)ethoxy]-1,3-benzothiazol-2-yl}-3-[2-(4-methylpiperazin-1-yl)ethyl]urea] | < 0.1
CC(Oc1ccc2nc(NC(=O)NCCCN3CCCCC3)sc2c1)c1c(Cl)ccc(F)c1Cl (stereo not drawn) [Example 44, 1-{6-[1-(2,6-dichloro-3-fluorophenyl)ethoxy]-1,3-benzothiazol-2-yl}-3-(3-piperidin-1-ylpropyl)urea] | < 0.1
CC(Oc1cc2sc(NC(=O)NCCN3CCN(C)CC3)nc2cc1F)c1c(F)ccc(Cl)c1Cl (single isomer, unassigned) [Example 116, 1-{6-[(1R*)-1-(2,3-dichloro-6-fluorophenyl)ethoxy]-5-fluoro-1,3-benzothiazol-2-yl}-3-[2-(4-methylpiperazin-1-yl)ethyl]urea] | < 0.1
C[C@@H](Oc1cc2sc(NC(=O)NCCN3CCOCC3)nc2cc1F)c1c(Cl)ccc(F)c1Cl (single isomer, unassigned) [Example 32, 1-{6-[(1R)-(2,6-dichloro-3-fluorophenyl)ethoxy]-5-fluoro-1,3-benzothiazol-2-yl}-3-(2-morpholin-4-ylethyl)urea or 1-{6-[(1S)-(2,6-dichloro-3-fluorophenyl)ethoxy]-5-fluoro-1,3-benzothiazol-2-yl}-3-(2-morpholin-4-ylethyl)urea] | < 0.1
CC(Oc1ccc2nc(NC(=O)NCc3ccccn3)sc2c1)c1c(Cl)ccc(F)c1Cl (stereo not drawn) [Example 58, 1-{6-[1-(2,6-dichloro-3-fluorophenyl)ethoxy]-1,3-benzothiazol-2-yl}-3-(pyridin-2-ylmethyl)urea] | < 0.1

Continued, values first:

IC50 [µM] | Molecule
< 0.1 | CC(Oc1ccc2nc(NC(=O)NCCN3CCN(C)CC3)sc2c1)c1c(Cl)ccc(F)c1Cl (stereo not drawn) [Example 55, 1-{6-[1-(2,6-dichloro-3-fluorophenyl)ethoxy]-1,3-benzothiazol-2-yl}-3-[2-(4-methylpiperazin-1-yl)ethyl]urea]
< 0.1 | CC(Oc1ccc2nc(NC(=O)NCCCN3CCC(Cc4ccccc4)CC3)sc2c1)c1c(Cl)ccc(F)c1Cl (stereo not drawn) [Example 41, 1-[3-(4-benzylpiperidin-1-yl)propyl]-3-{6-[1-(2,6-dichloro-3-fluorophenyl)ethoxy]-1,3-benzothiazol-2-yl}urea]
< 0.1 | CCN1CCN(CCNC(=O)Nc2nc3cc(F)c(OC(C)c4c(Cl)ccc(F)c4Cl)cc3s2)CC1 (single isomer, unassigned) [Example 102, 1-{6-[(1S*)-1-(2,6-dichloro-3-fluorophenyl)ethoxy]-5-fluoro-1,3-benzothiazol-2-yl}-3-[2-(4-ethylpiperazin-1-yl)ethyl]urea]
< 0.1 | CC(Oc1ccc2nc(NC(=O)NCc3ccncc3)sc2c1)c1c(Cl)ccc(F)c1Cl (stereo not drawn) [Example 57, 1-{6-[1-(2,6-dichloro-3-fluorophenyl)ethoxy]-1,3-benzothiazol-2-yl}-3-(pyridin-4-ylmethyl)urea]
< 0.1 | CC(Oc1ccc2nc(NC(=O)NCCC3CCCN3C)sc2c1)c1c(Cl)ccc(F)c1Cl (stereo not drawn) [Example 53, 1-{6-[1-(2,6-dichloro-3-fluorophenyl)ethoxy]-1,3-benzothiazol-2-yl}-3-[2-(1-methylpyrrolidin-2-yl)ethyl]urea]
< 0.1 | CC(Oc1ccc2nc(NC(=O)NCCCN3C(C)CCCC3C)sc2c1)c1c(Cl)ccc(F)c1Cl (stereo not drawn) [Example 47, 1-{6-[1-(2,6-dichloro-3-fluorophenyl)ethoxy]-1,3-benzothiazol-2-yl}-3-[3-(2,6-dimethylpiperidin-1-yl)propyl]urea]
< 0.1 | CC(Oc1cc2sc(NC(=O)NCCN3CCN(C)CC3)nc2cc1F)c1c(F)ccc(Cl)c1Cl (single isomer, unassigned) [Example 117, 1-{6-[(1S*)-1-(2,3-dichloro-6-fluorophenyl)ethoxy]-5-fluoro-1,3-benzothiazol-2-yl}-3-[2-(4-methylpiperazin-1-yl)ethyl]urea]
< 0.1 | CC(Oc1ccc2nc(NC(=O)NCCN3CCOCC3)sc2c1)c1c(Cl)ccc(F)c1Cl (single isomer, unassigned) [Example 25, 1-{6-[(1R*)-(2,6-dichloro-3-fluorophenyl)ethoxy]-1,3-benzothiazol-2-yl}-3-(2-morpholin-4-ylethyl)urea]
< 0.1 | CC(Oc1ccc2nc(NC(=O)NCCN3CCOCC3)sc2c1)c1c(F)cccc1F (stereo not drawn) [Example 18, 1-{6-[1-(2,6-difluorophenyl)ethoxy]-1,3-benzothiazol-2-yl}-3-(2-morpholin-4-ylethyl)urea]
< 0.1 | CC(Oc1ccc2nc(NC(=O)NCCN3CCCC3)sc2c1)c1c(F)ccc(Cl)c1Cl (single isomer, unassigned) [Example 121, 1-{6-[(1R*)-(2,3-dichloro-6-fluorophenyl)ethoxy]-1,3-benzothiazol-2-yl}-3-[2-(pyrrolidin-1-yl)ethyl]urea]
< 0.1 | CC(Oc1ccc2nc(NC(=O)NCCCN(C)C)sc2c1)c1c(Cl)ccc(F)c1Cl (stereo not drawn) [Example 43, 1-{6-[1-(2,6-dichloro-3-fluorophenyl)ethoxy]-1,3-benzothiazol-2-yl}-3-[3-(dimethylamino)propyl]urea]
< 0.1 | CC(Oc1cc2sc(NC(=O)NCCO)nc2cc1F)c1c(Cl)ccc(F)c1Cl (single isomer, unassigned) [Example 99, 1-{6-[(1R*)-1-(2,6-dichloro-3-fluorophenyl)ethoxy]-5-fluoro-1,3-benzothiazol-2-yl}-3-(2-hydroxyethyl)urea]
< 0.1 | CC(Oc1ccc2nc(NC(=O)NCCN3C(C)CCCC3C)sc2c1)c1c(Cl)ccc(F)c1Cl (stereo not drawn) [Example 56, 1-{6-[1-(2,6-dichloro-3-fluorophenyl)ethoxy]-1,3-benzothiazol-2-yl}-3-[2-(2,6-dimethylpiperidin-1-yl)ethyl]urea]
